A short description of series [1]: Plasma stability assay, rat plasma. Particulars: rat, 10 µM. The series is classed as in vitro ADME. How it is done: (§1) Compound stability in rat and human plasma was measured by incubating compound with rat or human plasma at 37° C. in a microwell plate for sequential time points, monitoring pro-drug disappearance and metabolite appearance (mesembranol or 6-epi-mesembranol). A 2 mM stock solution of test compounds were prepared by dissolving appropriate amount of compounds in DMSO. The 2 mM stock was further diluted 200-folds in rat or human plasma to attain a final concentration of 10 μM respectively (0.5% DMSO). 50 μL aliquots of positive controls and test compounds spiked into rat or human plasma (n=2) were added to a pre-warmed plate (37° C.) and shaken at 50 rpm. At each respective time point, the reaction was stopped by adding 500 μL of acetonitrile containing internal standards (100 nM aprozolam, 200 nM caffeine, 100 nM tolbutamide). All samples were vortexed for 10 minutes, followed by centrifugation at 3,220 g for 30 minutes to precipitate proteins. 100 μL of the supernatant is transferred to a new plate. The supernatant will be diluted with ultrapure water according to the LC-MS signal response and peak shape. The concentrations of test compounds and positive control were quantified in the test samples using LC-MS/MS. Results reported as % of prodrug compound remaining at time point, and % of metabolite (mesembranol or 6-epi-mesembranol,) accumulated at time point.

Series [2] in a line: Plasma stability assay, human plasma. Particulars: human, 10 µM. The series is classed as in vitro ADME. On the procedure:
as §1

This is an account of results in US20240409566A1, “DELIVERY OF THERAPEUTIC ALKALOID COMPOUNDS” (priority 2022, published 2024).

Bounds are passed on as bounds.

For `CCCCC(=O)OC1CC[C@@]2(c3ccc(OC)c(OC)c3)CCN(C)[C@H]2C1` (stereo in doubt) [Compound 205, (3aS,6S,7aS)-3a-(3,4-dimethoxyphenyl)-1-methyloctahydro-1H-indol-6-yl pentanoate], the “Prodrug (%)” value in series [1] (0 min) amounted to 100.0%; in series [1] (10 min), 0.6%; in series [1] (30 min) it was 0.1%; in series [1] (60 min), 0.1%; in series [1] (120 min), 0.1%; in series [1] (240 min) it was 0.0%. Moreover, the “Prodrug (%)” value in series [2] (0 min) was found to be 100.0%; in series [2] (10 min), 96.7%; in series [2] (30 min), 90.7%; in series [2] (60 min), 84.3%; in series [2] (120 min), 80.3%; in series [2] (240 min) it was 67.9%.
`CCCC(=O)OC1CC[C@@]2(c3ccc(OC)c(OC)c3)CCN(C)[C@H]2C1` (stereo in doubt) [Compound 206, (3aS,6S,7aS)-3a-(3,4-dimethoxyphenyl)-1-methyloctahydro-1H-indol-6-yl butyrate]: the “Prodrug (%)” value in series [1] (0 min) was 100.0%; in series [1] (10 min) it was 0.8%; in series [1] (30 min), 0.1%; in series [1] (60 min) it was 0.0%; in series [1] (120 min) it was 0.0%; in series [1] (240 min), 0.0%. Besides, the “Prodrug (%)” value in series [2] (0 min) is given as 100.0%; in series [2] (10 min), above 99.0%; in series [2] (30 min), 92.7%; in series [2] (60 min) it was 83.8%; in series [2] (120 min), 79.1%; in series [2] (240 min), 68.0%.
As for `COc1ccc([C@@]23CC[C@H](OC(=O)N(C)C)C[C@@H]2N(C)CC3)cc1OC` [Compound 101, (3aS,6S,7aS)-3a-(3,4-dimethoxyphenyl)-1-methyloctahydro-1H-indol-6-yl dimethylcarbamate], the “Prodrug (%)” value came out at 100.0% in series [1] (0 min); 88.7% in series [1] (10 min); 95.0% in series [1] (30 min); 98.2% in series [1] (60 min); 99.4% in series [1] (120 min); 92.2% in series [1] (240 min). Moreover, the “Prodrug (%)” value in series [2] (0 min) is given as 100.00%; in series [2] (10 min), above 99.0%; in series [2] (30 min) it was above 99.0%; in series [2] (60 min), above 99.0%; in series [2] (120 min) it was above 99.0%; in series [2] (240 min), above 99.0%.
As to `COc1ccc([C@@]23CC[C@H](OC(=O)C(C)(C)C)C[C@@H]2N(C)CC3)cc1OC` [Compound 102, (3aS,6S,7aS)-3a-(3,4-dimethoxyphenyl)-1-methyloctahydro-1H-indol-6-yl pivalate], the “Prodrug (%)” value in series [1] (0 min) is given as 100.0%; in series [1] (10 min), above 99.0%; in series [1] (30 min) it was 77.8%; in series [1] (60 min), 68.1%; in series [1] (120 min), 42.3%; in series [1] (240 min), 15.4%. Moreover, the “Prodrug (%)” value in series [2] (0 min) was 100.00%; in series [2] (10 min), 97.52%; in series [2] (30 min) it was 95.20%; in series [2] (60 min), 92.88%; in series [2] (120 min), above 99.0%; in series [2] (240 min), 94.80%.
On to `COc1ccc([C@@]23CC[C@H](OC(=O)C(C)C)C[C@@H]2N(C)CC3)cc1OC` [Compound 103, (3aS,6S,7aS)-3a-(3,4-dimethoxyphenyl)-1-methyloctahydro-1H-indol-6-yl isobutyrate], for which the “Prodrug (%)” value in series [1] (0 min) is recorded as 100.0%; in series [1] (10 min) it was 56.1%; in series [1] (30 min) it was 12.2%; in series [1] (60 min) it was 0.6%; in series [1] (120 min), 0.1%; in series [1] (240 min) it was 0.0%. Also, the “Prodrug (%)” value is on record as 100.00% in series [2] (0 min); above 99.0% in series [2] (10 min); above 99.0% in series [2] (30 min); 97.28% in series [2] (60 min); 97.48% in series [2] (120 min); 87.17% in series [2] (240 min).
